SMILES strings stand for the structures.

From patent US10174024B2, “5H-pyrido[3,2-B]indole compounds as anticancer agents” (BRISTOL-MYERS SQUIBB COMPANY, priority 2015, dated 2019) come the findings set out here.

For the first test, the target named is BRD4 (Homo sapiens, UniProt O60885). Briefly: Time Resolved Fluorescence Resonance Energy Transfer (TR-FRET) binding assay, FRET BRD4. The following applies: FRET BRD4 IC50 (nM), one of the FRET assays described (BRD4 bromodomain construct not specified).
For `[2H]C([2H])([2H])c1nnn(C)c1-c1cnc2c3ccc(C4(O)CCN(C)CC4)c(F)c3n([C@H](c3ccccc3)C3CCOCC3)c2c1` [Example 54, 4-{6-Fluoro-3-[4-(^2H3)methyl-1-methyl-1H-1,2,3-triazol-5-yl]-5-[(S)-oxan-4-yl(phenyl)methyl]-5H-pyrido[3,2-b]indol-7-yl}-1-methylpiperidin-4-ol], the IC50 is < 1 nM.

The test is the same for the next values; noted with them: one of the FRET assays described (BRD4 bromodomain construct not specified); read-out: FRET BRD4 IC50.
In the case of `CC(=O)OCC(=O)N1CCN(c2ccc3c(c2)c2ncc(-c4c(C)nnn4C)cc2n3[C@H](c2ccccc2)C2CCOCC2)CC1` [Example 14, 2-{4-[3-(Dimethyl-1H-1,2,3-triazol-5-yl)-5-[(S)-oxan-4-yl(phenyl)methyl]-5H-pyrido[3,2-b]indol-8-yl]piperazin-1-yl}-2-oxoethyl acetate], the IC50 was < 5 nM. Same read-out and setting: then `Cc1nnn(C)c1-c1cnc2c3ccc(N4CCC(F)(F)CC4)cc3n(C(c3ccccc3)C3CCC(F)(F)CC3)c2c1` (single isomer, unassigned) [Example 75, 1-{5-[(4,4-Difluorocyclohexyl)(phenyl)methyl]-3-(dimethyl-1H-1,2,3-triazol-5-yl)-5H-pyrido[3,2-b]indol-7-yl}-4,4-difluoropiperidine], with < 5 nM; and `[2H]C([2H])([2H])c1nnn(C)c1-c1cnc2c3ccc(C4(C)COC(=O)N4)c(F)c3n([C@H](c3ccccc3)C3CCOCC3)c2c1` (stereo partly drawn) [Example 55, 4-{6-Fluoro-3-[4-(^2H3)methyl-1-methyl-1H-1,2,3-triazol-5-yl]-5-[(S)-oxan-4-yl(phenyl)methyl]-5H-pyrido[3,2-b]indol-7-yl}-4-methyl-1,3-oxazolidin-2-one], with < 1 nM; and `Cc1nnn(C)c1-c1cnc2c3ccc(N4CCS(=O)(=O)CC4)cc3n([C@H](c3ccccc3)C3CCOCC3)c2c1` [Example 44, 4-[3-(Dimethyl-1H-1,2,3-triazol-5-yl)-5-[(S)-oxan-4-yl(phenyl)methyl]-5H-pyrido[3,2-b]-indol-7-yl]-1λ^6-thiomorpholine-1,1-dione], with < 1 nM. The same measure, in the same setting: the same measure for `Cc1nnn(C)c1-c1cnc2c3c(N4CCN(C5COC5)CC4)ccc(S(C)(=O)=O)c3n([C@H](c3ccccc3)C3CCOCC3)c2c1` [Example 23, 1-[3-(Dimethyl-1H-1,2,3-triazol-5-yl)-6-methanesulfonyl-5-[(S)-oxan-4-yl(phenyl)methyl]-5H-pyrido[3,2-b]indol-9-yl]-4-(oxetan-3-yl)piperazine]: < 5 nM. `[2H]C([2H])([2H])c1nnn(C)c1-c1cnc2c3ccc(N4CCC(F)(F)CC4)cc3n(C(c3ncccc3F)C3CCOCC3)c2c1` (stereo not drawn) [Example 66, 2-{[7-(4,4-Difluoropiperidin-1-yl)-3-[4-(^2H3)methyl-1-methyl-1H-1,2,3-triazol-5-yl]-5H-pyrido[3,2-b]indol-5-yl](oxan-4-yl)methyl}-3-fluoropyridine]: the concentration for half-maximal inhibition (IC50) was < 5 nM. Still for that read-out and setting: then `[2H]C([2H])([2H])c1nnn(C)c1-c1cnc2c3c(N4CCCS4(=O)=O)ccc(S(C)(=O)=O)c3n([C@]([2H])(c3ccccc3F)C3CCOCC3)c2c1` [Example 37, 2-{5-[(S)-(2-Fluorophenyl)(oxan-4-yl)(^2H)methyl]-6-methanesulfonyl-3-[4-(^2H3)methyl-1-methyl-1H-1,2,3-triazol-5-yl]-5H-pyrido[3,2-b]indol-9-yl}-1λ^6,2-thiazolidine-1,1-dione], with < 5 nM; and `Cc1nnn(C)c1-c1cnc2c3cc(N4CCN(C5COC5)CC4)ccc3n([C@H](c3ccccc3)C3CCOCC3)c2c1` [Example 15, 1-[3-(Dimethyl-1H-1,2,3-triazol-5-yl)-5-[(S)-oxan-4-yl(phenyl)methyl]-5H-pyrido[3,2-b]indol-8-yl]-4-(oxetan-3-yl)piperazine], with < 5 nM. Same read-out and setting: then `[2H]C([2H])([2H])c1nnn(C)c1-c1cnc2c3c(N4CCS(=O)(=O)CC4)ccc(S(C)(=O)=O)c3n([C@H](c3ccccc3)C3CCOCC3)c2c1` [Example 24, 4-{6-Methanesulfonyl-3-[4-(^2H3)methyl-1-methyl-1H-1,2,3-triazol-5-yl]-5-[(S)-oxan-4-yl(phenyl)methyl]-5H-pyrido[3,2-b]indol-9-yl}-1λ^6-thiomorpholine-1,1-dione], with < 5 nM; and `[2H]C([2H])([2H])c1nnn(C)c1-c1cnc2c3ccc(N4CCCS4(=O)=O)c(F)c3n([C@H](c3ccccc3)C3CCOCC3)c2c1` [Example 58, 2-{6-Fluoro-3-[4-(^2H3)methyl-1-methyl-1H-1,2,3-triazol-5-yl]-5-[(S)-oxan-4-yl(phenyl)methyl]-5H-pyrido[3,2-b]indol-7-yl}-1λ^6,2-thiazolidine-1,1-dione], with < 1 nM. For `Cc1nnn(C)c1-c1cnc2c3ccc(N4CCN(S(=O)(=O)N(C)C)CC4)cc3n([C@H](c3ccccc3)C3CCOCC3)c2c1` [Example 50, 4-[3-(Dimethyl-1H-1,2,3-triazol-5-yl)-5-[(S)-oxan-4-yl(phenyl)methyl]-5H-pyrido[3,2-b]indol-7-yl]-N,N-dimethylpiperazine-1-sulfonamide], the IC50 was < 5 nM. With `Cc1nnn(C)c1-c1cnc2c3c(N4CCN(C(=O)OC(C)(C)C)CC4)ccc(S(C)(=O)=O)c3n([C@H](c3ccccc3)C3CCOCC3)c2c1` [Example 25, tert-Butyl 4-[3-(dimethyl-1H-1,2,3-triazol-5-yl)-6-methanesulfonyl-5-[(S)-oxan-4-yl(phenyl)methyl]-5H-pyrido[3,2-b]indol-9-yl]piperazine-1-carboxylate], the 50% inhibitory concentration (IC50) is < 5 nM. Regarding `CC(=O)OCC(=O)N1CCC(c2ccc3c(c2)c2ncc(-c4c(C)nnn4C)cc2n3[C@H](c2ccccc2)C2CCOCC2)CC1` [Example 8, 2-{4-[3-(Dimethyl-1H-1,2,3-triazol-5-yl)-5-[(S)-oxan-4-yl(phenyl)methyl]-5H-pyrido[3,2-b]indol-8-yl]piperidin-1-yl}-2-oxoethyl acetate], the IC50 is < 5 nM. Consider `[2H]C([2H])([2H])c1nnn(C)c1-c1cnc2c3cc(N4CCS(=O)(=O)CC4)ccc3n([C@H](c3ccccc3F)C3CCOCC3)c2c1` [Example 41, 4-{5-[(S)-(2-Fluorophenyl)(oxan-4-yl)methyl]-3-[4-(^2H3)methyl-1-methyl-1H-1,2,3-triazol-5-yl]-5H-pyrido[3,2-b]indol-8-yl}-1λ^6-thiomorpholine-1,1-dione], for which the IC50 was < 1500 nM.

As for `Cc1nnn(C)c1-c1cnc2c3ccc(-c4cnn(C(C)C)c4)cc3n([C@H](c3ccccc3)C3CCOCC3)c2c1` [Example 16, 1,4-Dimethyl-5-{5-[(S)-oxan-4-yl(phenyl)methyl]-7-[1-(propan-2-yl)-1H-pyrazol-4-yl]-5H-pyrido[3,2-b]indol-3-yl}-1H-1,2,3-triazole], the 50% inhibitory concentration (IC50) was < 5 nM. The same measure, in the same setting: then `COc1nnn(C)c1-c1ccc2c3ncc(-c4c(OC)nnn4C)cc3n([C@H](c3ccccc3)C3CCOCC3)c2c1` [Example 32, 4-Methoxy-5-[7-(4-methoxy-1-methyl-1H-1,2,3-triazol-5-yl)-5-[(S)-oxan-4-yl(phenyl)methyl]-5H-pyrido[3,2-b]indol-3-yl]-1-methyl-1H-1,2,3-triazole], with < 1 nM; and `[2H]C([2H])([2H])c1nnn(C)c1-c1cnc2c3ccc(N4CCC(S(C)(=O)=O)CC4)cc3n(C(c3ncccc3F)C3CCOCC3)c2c1` (stereo not drawn) [Example 69, 3-Fluoro-2-{[7-(4-methanesulfonylpiperidin-1-yl)-3-[4-(^2H3)methyl-1-methyl-1H-1,2,3-triazol-5-yl]-5H-pyrido[3,2-b]indol-5-yl](oxan-4-yl)methyl}pyridine], with < 1 nM. Still for that read-out and setting: then `Cc1nnn(C)c1-c1cnc2c3c(N4CCN(CC(N)=O)CC4)ccc(S(C)(=O)=O)c3n([C@H](c3ccccc3)C3CCOCC3)c2c1` [Example 22, 2-{4-[3-(Dimethyl-1H-1,2,3-triazol-5-yl)-6-methanesulfonyl-5-[(S)-oxan-4-yl(phenyl)methyl]-5H-pyrido[3,2-b]indol-9-yl]piperazin-1-yl}acetamide], with < 5 nM; and `[2H]C([2H])([2H])c1nnn(C)c1-c1cnc2c3ccc(N4CCS(=O)(=O)CC4)cc3n([C@H](c3ccccc3)C3CCOCC3)c2c1` [Example 45, 4-{3-[4-(^2H3)Methyl-1-methyl-1H-1,2,3-triazol-5-yl]-5-[(S)-oxan-4-yl(phenyl)methyl]-5H-pyrido[3,2-b]indol-7-yl}-1λ^6-thiomorpholine-1,1-dione], with < 5 nM; and `Cc1nnn(C)c1-c1cnc2c3ccc(-c4nnn[nH]4)cc3n([C@H](c3ccccc3)C3CCOCC3)c2c1` [Example 11, 5-[3-(Dimethyl-1H-1,2,3-triazol-5-yl)-5-[(S)-oxan-4-yl(phenyl)methyl]-5H-pyrido[3,2-b]indol-7-yl]-1H-1,2,3,4-tetrazole], with < 1 nM. Same read-out and setting: then `[2H]C([2H])([2H])c1nnn(C)c1-c1cnc2c3c(N4CCCS4(=O)=O)ccc(S(C)(=O)=O)c3n([C@H](c3ccccc3F)C3CCOCC3)c2c1` [Example 34, 2-{5-[(S)-(2-Fluorophenyl)(oxan-4-yl)methyl]-6-methanesulfonyl-3-[4-(^2H3)methyl-1-methyl-1H-1,2,3-triazol-5-yl]-5H-pyrido[3,2-b]indol-9-yl}-1λ^6,2-thiazolidine-1,1-dione], with < 1 nM; and `[2H]C([2H])([2H])c1nnn(C)c1-c1ccc2c3ncc(-c4c(C)nnn4C)cc3n([C@H](c3ccccc3)C3CCOCC3)c2c1` [Example 18, 5-[3-(Dimethyl-1H-1,2,3-triazol-5-yl)-5-[(S)-oxan-4-yl(phenyl)methyl]-5H-pyrido[3,2-b]indol-7-yl]-4-(^2H3)methyl-1-methyl-1H-1,2,3-triazole], with < 1 nM. Take `[2H]C([2H])([2H])c1nnn(C)c1-c1cnc2c3ccc(C4(C)COC(=O)N4)c(F)c3n([C@H](c3ccccc3)C3CCOCC3)c2c1` (stereo partly drawn) [Example 56, 4-{6-Fluoro-3-[4-(^2H3)methyl-1-methyl-1H-1,2,3-triazol-5-yl]-5-[(S)-oxan-4-yl(phenyl)methyl]-5H-pyrido[3,2-b]indol-7-yl}-4-methyl-1,3-oxazolidin-2-one]: the half-maximal inhibitory concentration (IC50) is < 1 nM.
